Tests used:
Assay type in all cases: cell-based
[1] = tested on: MCF7/LCC1 antiestrogen-responsive breast cancer cells; experiment: Crystal violet cell proliferation assay, MCF7/LCC1 cells (combination with antiestrogens); conditions: 72 h, >1.0 indicates synergistic interaction
Method: (§1) Compound Sd-6 was tested in a dose-response assay using different breast cancer cell lines, including MCF7/LCC1, MCF7/LCC9, T47D, and MCF-7. MCF7/LCC1 is an ERα-positive estrogen-independent, antiestrogen-responsive breast cancer cell line. MCF7/LCC9 is an ERα-positive estrogen-independent, antiestrogen-resistant breast cancer cell line. MCF- is an ERα-positive estrogen-dependent, antiestrogen-responsive breast cancer cell line. Cells were first plated in 96-well plastic tissue culture plates (10,000 cells per well). The cells were treated with 500 nM of Compound Sd-6 or the vehicle alone (DMSO) for 48 h. Following treatment, the cells were washed with PBS, stained with a crystal violet staining solution, and allowed to dry for 48-72 hrs. After drying, sodium citrate buffer was added to each well and allowed to incubate for 5 min at room temperature. The absorbance was measured at 450 nm using a microplate reader (Biorad; Hercules, Calif.).
(§2) Compound Sd-6 was tested in a dose-response assay using MCF7/LCC1 antiestrogen-responsive breast cancer cells and MCF7/LCC9 antiestrogen-resistant breast cancer cells. Cells were first plated in 96-well plastic tissue culture plates (10,000 cells per well). […] Following treatment, cell proliferation was determined using a crystal violet assay as described above. […]

[2] = tested on: MCF7/LCC9 antiestrogen-resistant breast cancer cells; experiment: Crystal violet cell proliferation assay, MCF7/LCC9 cells (combination with antiestrogens); conditions: 10 μM Compound Sd-6 combined with 100 nM Faslodex/ICI 182,780 (ICI), 72 h, >1.0 indicates synergistic interaction
Method: as §1, §2

[3] = tested on: MCF 10A, a non-breast cancer cell line; experiment: Crystal violet dose-response cell proliferation assay, MCF 10A control cells; conditions: MCF 10A cells; 10 μM, 25 μM or 50 μM for 72 h
Method: as §1
Compound Sd-6 was tested in a dose-response assay using different breast cancer cell lines, including MCF7/LCC1, MCF7/LCC9, T47D, MCF-7, MCF-7/RR, LY2, and MDA-MB-231. MCF 10A, a non-breast cancer cell line, served as the control. The cells were first plated in 96-well plastic tissue culture plates (10,000 cells per well). […] Following treatment, cell proliferation was determined using a crystal violet assay as described in Example 1.

[4] = tested on: antiestrogen resistant LCC9 cells; experiment: Crystal violet cell viability assay, antiestrogen resistant LCC9 cells; conditions: 72 hours, normalized to vehicle-treated cells, compared with NPPTA
Method: To measure cell viability, antiestrogen resistant LCC9 cells were plated in 96-well plastic tissue culture plates at a density of 5×10^3 cells/well. Twenty-four hours after plating, cells were treated with 3-naphthoyl-1,1,1-trifluoroacetone (NPPTA) and the analogs (i.e., Compound JS-011, Compound JS-012, Compound JS-013, Compound JS-014, Compound JS-015, Compound JS-020). After 72 hours, the cell culture media was removed and plates were stained with […] of a solution containing 0.5% crystal violet and 25% methanol, rinsed with deionized water, dried overnight, and resuspended in […] citrate buffer (0.1 M sodium citrate in 50% ethanol) to assess plating efficiency. Intensity of crystal violet staining, assessed at 570 nm and quantified using a Vmax Kinetic Microplate Reader and Softmax software (Molecular Devices Corp., Menlo Park, Calif.), was directly proportional to cell number. Data were normalized to vehicle-treated cells and are presented in FIG. 8 as the mean±SE from representative experiments.

Row | Compound | RI value (Sexp/Sobs) for inhibition of cell proliferation ([1]; 10 μM Compound Sd-6 combined with 100 nM Faslodex/ICI 182,780 (ICI)) | RI value (Sexp/Sobs) for inhibition of cell proliferation ([1]; 10 μM Compound Sd-6 combined with 100 nM Tamoxifen (TAM)) | RI value (Sexp/Sobs) for inhibition of cell proliferation [2] | Response of relative cell proliferation to compound [3] | Inhibition of LCC9 cells (cell viability, crystal violet) [4]
1 | O=C(CSc1nc(-c2cccnc2)n[nH]1)Nc1ccc(Oc2ccccc2)cc1 [Compound Sd-6] | 1.44 | 1.82 | 1.27 | did not respond | 
2 | O=C(CSc1nc(-c2cccnc2)n[nH]1)Nc1ccc(Oc2ccc(Cl)cc2)cc1 [JS-014] |  |  |  |  | effective, and more potent than NPPTA
3 | O=C(CSc1nc(-c2cccnc2)n[nH]1)Nc1ccc(Oc2ccc(C(F)(F)F)cc2)cc1 [JS-020] |  |  |  |  | effective, and more potent than NPPTA

Source: US10806725B2, “Small molecule inhibitors of XBP1 splicing” (GEORGETOWN UNIVERSITY, priority 2011, dated 2020)
